Experimental findings from paper PMC9106035, “Synthesis, X-ray Structure and Biological Studies of New Self-Assembled Cu(II) Complexes Derived from s-Triazine Schiff Base Ligand” (Molecules, 2022) are described below.

A word on the MIC: it is the least concentration at which growth counts as inhibited. A word on the IC50: it is the concentration at which inhibition is half-maximal. High values mean lower potency, low ones higher potency.

Test [1] in a line: DPPH radical scavenging assay. Type of test: biochemical. As for the experimental part: The studied Cu(II) complexes and the free ligands were assessed for their antioxidant activity levels using an α,α-diphenyl-β-picrylhydrazyl (DPPH) scavenging assay, and the results are given in Table 7. […] The results indicated better antioxidant activity for DMAT than for DMOHT, indicating the effect of the substituent at the phenyl moiety on the antioxidant activity level of the free ligand. […] On the other hand, the Cu(II) complexes have improved levels of antioxidant activity compared to the free ligands.
Method S3 DPPH Radical Scavenging Activity:
Freshly prepared (0.004 %w/v) methanol solution of 2,2-diphenyl-1-pi crylhydrazyl (DPPH) radical was prepared and stored at 10 °C in dark place. A methanolic solution of the test compound was prepared using the same procedure. A 40 uL aliquot of the methanol solution was added to 3mL of DPPH solution. Absorbance measurements were recorded immediately with a UV-visible spectrophotometer (Milton Roy, Spectronic 1201). The decrease in absorbance at 515 nm was determined continuously, with data being recorded at 1 min intervals until the absorbance stabilized (16 min). The absorbance of the DPPH radical without antioxidant (control) and the reference compound ascorbic acid were also measured.
All the determinations were performed in three replicates and averaged. The percentage inhibition (PI) of the DPPH radical was calculated according to the […]
PI = [{(AC- AT)/ AC} x 100] (1)
Where AC = Absorbance of the control at t = 0 min and AT = absorbance of the sample+DPPH at t = 16 min. The 50% inhibitory concentration (IC50), the concentration required t o inhibit DPPH radical by 50%, was estimated from graphic plots of the dose respons e curve.

The subject of test [2] is C. albicans (RCMB 005003(1) ATCC 10231). Description: Minimum Inhibitory Concentration (MIC). Type of test: cell-based. Conditions: Candida albicans, read-out: MIC. As for the experimental part:
(§1) Method S2: Antimi crobial studies a) Tested pathogenic microbes
(§2) The antibacterial a ctivity of the studied ligands and their Cu(II) complexes were evaluated against two Gram positive bacteria ((S. aureus (ATCC 25923) and B. […]
(§3) 0.5). In case of fungi A. fumigatus (RCMB 002008) and C. albicans (RCMB 005003(1) ATCC 10231), the used medium in antagonistic activity against tested fungi is Potato Dextrose Agar, where Fluconazole was used standard antifungal agent. […]
(§4) c) Minimum Inhibitory Concentration (MIC)
(§5) Different dilutions of the compounds are inoculat ed with tested pathogenic microbes.
(§6) After incubation period of 96 well microplate, the results are meas ured using microplate reader. To determine at what level the MIC endpoint is established; subculture of test samples at different concentrati ons occurred in nutrient agar plates.

Test [3] has as its system A. fumigatus (RCMB 002008). Description: Minimum Inhibitory Concentration (MIC). Type of test: cell-based. The method, then: as §1, §2, §3, §4, §5, §6
Test [4] deals with A. fumigatus (RCMB 002008). Kind of test: Agar well diffusion, inhibition zone. Type of test: cell-based. Conditions: 10 mg/mL of the tested compounds. As for the experimental part:
(§7) The antimicrobial activity of the free ligands and the corresponding Cu(II) complexes was determined against different categories of microbes (Table 5). All inhibition zones were determined at 10 mg/mL of the tested compounds. […] The largest inhibition zones were found for B. subtilis (25 mm), which is very close to the standard Gentamycin (26 mm). […] Complex 1 evidenced antimicrobial activity against all microbes except C. albicans.
as §1
(§8) The antibacterial a ctivity of the studied ligands and their Cu(II) complexes were evaluated against two Gram positive bacteria ((S. aureus (ATCC 25923) and B. subtilis (RCMB015(1)NRR LB-543)), two Gram negatvie bacteria ((E. coli (ATCC 25922) and P. vulgaris (RCMB 004(1)ATCC 13315)) and two fungi ((A. fumigatus […]
was used as standard antibacterial agent. The samples maintained in Brain heart infusion (BHI) at 20 °C; […] of each stock–c ulture was added to 3 mL of BHI […]
broth. […]
(§9) 0.5). In case of fungi A. fumigatus (RCMB 002008) and C. albicans (RCMB 005003(1) ATCC 10231), the used medium in antagonistic activity against tested fungi is Potato Dextrose Agar, where Fluconazole was used standard antifungal agent. b) Agar well diffusion method
(§10) Synthetic compounds were prepared at concentration 10 mg/mL dissolved in DMSO as stock solutions. Preparation of sterilized Mueller Hinton agar plates seeded with tested pathogenic b acteria occurred. The wells are done by sterilized cork borer in size […]
(§11) comparably with DMSO as control. The plates were incubated at 37°C for 24 h. after incubation period; antimicrobial activity was d etermined by inhibition zones. […]

For test [5], the system named is C. albicans (RCMB 005003(1) ATCC 10231). Kind of test: Agar well diffusion, inhibition zone. Type of test: cell-based. Conditions: 10 mg/mL of the tested compounds. The method, then:
as §7, §1, §2, §9, §10, §11
(A growth-free zone around the sample is the usual read-out of agar diffusion tests.)

Test [6] has as its system lung carcinoma A-549 cell line. Kind of test: Anticancer activity, MTT viability assay. Type of test: cell-based. Conditions: A-549 cells, 24 h, MTT. As for the experimental part:
The studied compounds were examined for their anticancer activity against the lung carcinoma A-549 cell line.
Method S4 Evaluation of Cytotoxic activity
The cells were propagated in Dulbecco’s modified Eagle’s medium (DMEM) supplemented with 10% heat-inactivated fetal bovine serum, 1 % L-glutamine, HEPES buffer and 50µg/mL Gentamycin. All cells were maintained at 37 °C in a humidified atmosphere with 5% CO2 and were subcultured tw o times a week.
Cytotoxicity evaluation using viability assay
For cytotoxicity assay, the cells were seeded in 96-well plate at a cell concentration of 1×10^4 cells per well in 100µl of growth medium. Fresh medium containing different concentrations of the test sample was added after 24 h of seeding. Serial two-fold dilutions of the tested chemical compound were added to confluent cell monolayers dispensed into 96-well, flat-bottomed microtiter plates (Falcon, NJ, USA) using a multichannel pipette. The microtiter plates were incubated at 37 °C in a humidified incubator with 5% CO2 for a period of 24 h. Three wells were used for each concentration of the test sample. Control cells were incubated without test sample and with or without DMSO. The little percentage of DMSO present in the […]
cells for at 37°C, for 24 h, the viabl e cells yield was determined by the MTT test.
Briefly, the media was removed from the 96 well plate and replaced with 100 µL of fresh culture DMEM m edium without phenol red then 10 µL of the 12 mM MTT stock solution (5 mg of MTT in 1 mL of PBS) to each well including the untreated controls. The 96 well plates were then incubated at 37°C and 5% CO2 for 4 hours. An 85 µL aliquot of the media was removed from t he wells, and 50 µL of DMSO was added to each well and mixed thoroughly with the pipette and incubated at 37°C for 10 min. Then, the optical density was measured at 590 nm with the microplate reader (SunRise, TECAN, Inc, USA) to determine the number of viable cells and the percentage of viability was calculat ed as [(ODt/ODc)]x100% where ODt i s the mean optical density of wells treated with the tested s ample and ODc is the mean optical density of untreated cells. The relation between surviving cells and drug concentration is plotted to get the survival curve of each tumor cell line after treatment with the specified compound. The 50% inhibitory concentration (IC50), the concentration required to cause t oxic effects in 50% of intact cells, was estimated from graphic plots of the dose response curve for each conc. using Graphpad Prism software (San Diego, […]
For orientation: Tetrazolium assays rely on reduction of a dye to a coloured formazan, in cell work by metabolically active cells.

Test [7] relates to S. aureus (ATCC 25923). Kind of test: Agar well diffusion, inhibition zone. Type of test: cell-based. The settings on record: 10 mg/mL of the tested compounds. The method, then: as §7, §1, §8
(§12) was used as standard antibacterial agent. The samples maintained in Brain heart infusion (BHI) at 20 °C; […] of each stock–c ulture was added to 3 mL of BHI broth. Overnight cultures were kept for 24 h at 37 °C ± 1 °C and the purity of cultures was checked aft er 24 h of incubation. […]
(§13) b) Agar well diffusion method
as §10, §11

The test system of test [8] is E. coli (ATCC 25922). Description: Agar well diffusion, inhibition zone. Type of test: cell-based. The settings on record: 10 mg/mL of the tested compounds. As for the experimental part:
as §7, §1, §8, §12, §13, §10, §11

Test [9] deals with B. subtilis (RCMB015(1)NRR LB-543). Kind of test: Agar well diffusion, inhibition zone. Type of test: cell-based. Conditions: 10 mg/mL of the tested compounds. The method, then:
as §7, §1, §8, §12, §13, §10, §11

Test [10] has as its system P. vulgaris (RCMB 004(1)ATCC 13315). Description: Agar well diffusion, inhibition zone. Type of test: cell-based. Conditions: 10 mg/mL of the tested compounds. The method, then:
as §7, §1, §8, §12, §13, §10, §11

Test [11] deals with S. aureus (ATCC 25923). Kind of test: Minimum Inhibitory Concentration (MIC). Type of test: cell-based. As for the experimental part: as §1, §8, §12, §4, §5, §6
The test system of test [12] is E. coli (ATCC 25922). Kind of test: Minimum Inhibitory Concentration (MIC). Type of test: cell-based. As for the experimental part: as §1, §8, §12, §4, §5, §6
The subject of test [13] is B. subtilis (RCMB015(1)NRR LB-543). Kind of test: Minimum Inhibitory Concentration (MIC). Type of test: cell-based. As for the experimental part: as §1, §8, §12, §4, §5, §6
Test [14] has as its system P. vulgaris (RCMB 004(1)ATCC 13315). Kind of test: Minimum Inhibitory Concentration (MIC). Type of test: cell-based. The method, then:
as §1, §8, §12, §4, §5, §6

Values after ≈ are worked out from the molar mass of the structure shown. Values joined by “and” are separate entries in the source; they are usually repeats but may differ in a detail not shown here. Equal entries are not always repeated. Where two headings read alike, the source gives them in different places. Marks after values point to notes of the source that are not given here.

On to `O=C1O[C@H]([C@@H](O)CO)C(O)=C1O` [Ascorbic Acid, ascorbic acid, reference compound], for which the “DPPH Scavenging %” value in test [1] (Conc. 2.5 μg/mL) was found to be 34.57%; in test [1] (Conc. 5 μg/mL) it was 40.36%; in test [1] (Conc. 10 μg/mL), 48.52%; in test [1] (Conc. 20 μg/mL), 71.38%; in [1] (Conc. 40 μg/mL) it was 83.09%; in test [1] (Conc. 80 μg/mL) it was 90.25%. Moreover, the “DPPH Scavenging %” value in test [1] (Conc. 160 μg/mL) worked out at 92.31%; in test [1] (Conc. 320 μg/mL), 95.64%; in [1] (Conc. 640 μg/mL), 97.83%; in test [1] (Conc. 1280 μg/mL) it was 98.91%. For the same compound, the “IC50 (DPPH scavenging)” value in test [1] (antioxidant activity) is 10.62 ± 0.84 µg/mL (≈ 60.3 µM).

Take `CC(=O)N1CCN(c2ccc(OCC3COC(Cn4ccnc4)(c4ccc(Cl)cc4Cl)O3)cc2)CC1` (stereo not shown) [Ketoconazole, reference compound]: the MIC is 312 µg/mL (≈ 588 µM) in [2]; 156.25 ^a μg/mL in test [3]; 156 µg/mL (≈ 294 µM) in test [3] (Aspergillus fumigatus, RCMB002008, read-out: MIC). Moreover, the Inhibition zone diameters in [4] is 17 mm and 17 ^a mm; in [5], 20 ^a mm.

Compound `N.N.[Cl][Pt][Cl]` [cis-Platin, cis-platin, reference compound] showed an IC50 in test [6] of 25 µM.

Consider Gentamycin [reference compound], for which the Inhibition zone diameters is 24 ^b mm in test [7]; 30 ^b mm in test [8]; 26 mm and 26 ^b mm in test [9]; 25 ^b mm in test [10]. Also, the minimal inhibitory concentration (MIC) in [11] was 9.7 ^b μg/mL; in [12] it was 4.8 ^b μg/mL; in test [13], 4.8 μg/mL and 4.8 ^b μg/mL; in test [14] it was 4.8 ^b μg/mL.
